# Measured values taken from paper PMC5007978, “A chemical with proven clinical safety rescues Down-syndrome-related phenotypes in through DYRK1A inhibition” (Disease Models & Mechanisms, 2016).
# Biological target: T1, DYRK3 (Homo sapiens, UniProt O43781)
# T1 construct: purchased Life Technologies (Kinase Profiler service)
# T1 sequence (O43781 1-588): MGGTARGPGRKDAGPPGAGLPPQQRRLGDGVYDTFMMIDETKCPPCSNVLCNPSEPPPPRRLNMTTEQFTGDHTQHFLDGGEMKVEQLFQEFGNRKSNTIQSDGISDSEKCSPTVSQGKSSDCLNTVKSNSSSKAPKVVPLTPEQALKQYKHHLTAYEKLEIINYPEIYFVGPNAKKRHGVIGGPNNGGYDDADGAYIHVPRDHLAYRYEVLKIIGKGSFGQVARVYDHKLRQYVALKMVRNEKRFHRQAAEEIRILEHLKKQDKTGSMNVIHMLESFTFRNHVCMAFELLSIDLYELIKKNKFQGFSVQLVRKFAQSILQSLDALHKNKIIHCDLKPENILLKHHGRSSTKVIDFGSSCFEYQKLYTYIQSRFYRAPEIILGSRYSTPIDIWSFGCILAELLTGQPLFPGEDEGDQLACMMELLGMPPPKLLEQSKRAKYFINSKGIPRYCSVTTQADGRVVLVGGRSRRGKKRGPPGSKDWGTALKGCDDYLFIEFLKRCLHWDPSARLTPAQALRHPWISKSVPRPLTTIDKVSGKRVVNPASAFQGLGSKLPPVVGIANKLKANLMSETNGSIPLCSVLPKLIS
# Test: In vitro kinase assay, recombinant human DYRK3 (Life Technologies)
# Assay type: biochemical
smiles,measurement,value
O=C(O)c1ccc2c(c1)nc(Nc1cccc(Cl)c1)c1ccncc12 [CX-4945],IC50,18 nM
